Square brackets hold non-standard residues; d marks the D form. Peptide text beside a SMILES is read from it. pS = N[C@@H](COP(=O)(O)O)C(=O)O
Legend:
[1] = target: T1, 14-3-3 ω (biotinylated dimer on streptavidin chip) (Arabidopsis thaliana, UniProt Q01525); assay: Grating coupled interferometry (GCI) binding kinetics versus 14-3-3 ω; conditions: 25°C, 1-to-1 (2:2) binding model
T1 construct: Full-length At14-3-3-κ^1−248 (Uniprot-ID P48348, http://uniprot.org), At14-3-3-λ^1−248 (P48349), At14-3-3-ω^1−259 (Q01525); thioredoxin A (trxA) fusion (N, cleaved yes); 8xHis (N, cleaved yes); StrepII (N, cleaved yes); biotin (chemical, EZ-Link NHS-Biotin on amines); made in house; host or cells: E. coli BL21 (DE3) RIL
T1 sequence (Q01525 1-259): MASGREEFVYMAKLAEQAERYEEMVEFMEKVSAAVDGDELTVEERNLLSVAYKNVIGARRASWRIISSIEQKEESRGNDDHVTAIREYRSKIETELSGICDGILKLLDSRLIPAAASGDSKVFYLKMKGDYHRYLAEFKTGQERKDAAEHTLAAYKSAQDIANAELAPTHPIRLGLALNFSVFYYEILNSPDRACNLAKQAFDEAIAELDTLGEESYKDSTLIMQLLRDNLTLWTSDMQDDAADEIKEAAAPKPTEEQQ
Method: The binding kinetics of 14-3-3 ω versus the BZR1^169−175 and pBZR1^169−175 peptides (Table 1) were assessed on a Creoptix® WAVE system using a streptavidin-coated 4PCH WAVEchip® (long polycarboxylate matrix; Creoptix AG, Switzerland). Chips were first conditioned with 100 mM sodium borate pH 9.0, 1 m NaCl. Next, after the activation of the chip surface with a 1:1 mix of 400 mM N-(3-dimethylaminopropyl)-N’-ethylcarbodiimide hydrochloride and 100 mM N-[…] hydroxysuccinimide (Xantec, Germany), streptavidin was immobilized on the chip surface through the injection of 50 µg/ml streptavidin (ThermoFisher Scientific 43–4301) in 10 mM sodium acetate pH 5.0 until high density (∼10,000 pg/mm^2) was reached. Biotinylation of 14-3-3 ω for capturing onto streptavidin chip was performed by mixing equimolar amounts of protein and biotin (EZ-Link™ NHS-Biotin ThermoFisher Scientific). A total of 170 µM of 14-3-3 ω were incubated on ice with 170 µM of biotin (previously dissolved in water to 20 mM) for 1.5 min. The biotinylation was performed in 100 mM Hepes pH 8 and 150 mM NaCl. The biotinylated 14-3-3 ω dimer was purified by size exclusion chromatography in 20 mM Hepes pH 7.5 and 150 mM NaCl on a Superdex 10/300 increase column (Cytiva Life Sciences) to verify the homogeneity and to remove excess biotin. Gel-filtrated biotinylated 14-3-3 ω (0.45 mg/ml) was directly immobilized on the streptavidin-coated chip until a density of about 500 pg/ mm^2 was reached. The synthetic BRZ1^169−175 and pBZR1^169−175 peptides were dissolved in 20 mM Hepes and 150 mM NaCl buffer to a final concentration of 10 mM. Kinetic analysis of 14-3-3 ω and BZR1^169−175/pBZR1^169−175 interactions was performed at 25°C by flushing a dilution series of the analyte pBZR1 with a 2 dilution factor starting from 10 µM. Data analysis and data fitting were done using the Creoptix WAVEcontrol® software.

[2] = target: T2, Arabidopsis 14-3-3 isoform kappa (14-3-3κ) (Arabidopsis thaliana, UniProt P48348); assay: biochemical; assay type: binding
T2 construct: Full-length At14-3-3-κ^1−248 (Uniprot-ID P48348, http://uniprot.org); thioredoxin A (trxA) fusion (N, cleaved yes); 8xHis (N, cleaved yes); StrepII (N, cleaved yes); made in house; host or cells: E. coli BL21 (DE3) RIL
T2 sequence (P48348 whole entry, the tested form may be a part, canonical isoform): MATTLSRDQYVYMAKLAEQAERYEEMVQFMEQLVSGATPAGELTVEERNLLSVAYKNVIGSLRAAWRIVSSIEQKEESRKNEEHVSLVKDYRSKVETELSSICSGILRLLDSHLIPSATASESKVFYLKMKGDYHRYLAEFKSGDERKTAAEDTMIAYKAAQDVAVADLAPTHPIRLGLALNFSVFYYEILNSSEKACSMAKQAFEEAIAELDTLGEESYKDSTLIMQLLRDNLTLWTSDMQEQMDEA
From the text: Full-length At14-3-3-κ^1−248 (Uniprot-ID P48348, http://uniprot.org), At14-3-3-λ^1−248 (P48349), At14-3-3-ω^1−259 (Q01525) or C-terminal truncated At14-3-3-κ^1−240, At14-3-3-λ^1−240 or At14-3-3-ω^1−237 isoforms and BIN2^7−380 from Arabidopsis were cloned from synthetic genes codon-optimized for expression in E. coli (Geneart, Thermofisher, Tauberbischofsheim, Germany) into vector pMH-HStrxT providing an N-terminal thioredoxin A (trxA) fusion protein containing 8xHis and StrepII affinity tags, and a tobacco etch virus protease (TEV) recognition site. Protein expression in E. coli BL21 (DE3) RIL grown to OD600nm= 0.6 was induced with 0.2 mM ispropyl β-D-galactoside in terrific broth at 16°C for 16 h. Cells were collected by centrifugation at 4500 × g for 30 min, washed in PBS buffer, centrifuged again at 4500 × g for 15 min and snap-frozen in liquid N2. For protein purification cells were resuspended in buffer A (20 mM Tris–HCl pH 8.0, 500 mM NaCl), and lysed by sonication (Branson DS450). The lysate was cleared by centrifugation at 7000 × g for 60 min and filtrated using a 0.45 µm molecular weight cutoff filter (Pall Corporation, Port Washington, NY, USA). The supernatant was loaded onto a Ni^2+ affinity column (HisTrap HP 5 mL, Cytiva Life Sciences, Freiburg im Breisgau, Germany), washed with buffer A and eluted in buffer A supplemented with 250 mM imidazole pH 8.0. […]

CC[C@H](C)[C@H](NC(=O)[C@@H](N)CCCNC(=N)N)C(=O)N[C@@H](CO)C(=O)N[C@@H](CC(N)=O)C(=O)N[C@@H](COP(=O)(O)O)C(=O)N[C@@H](C)C(=O)N1CCC[C@H]1C(=O)O [pBZR1^169-175] (H-RISN[pS]AP-OH)
Kd ([1]; Fig. 2D and text, read-out: KD, dissociation constant (GCI)): 0.52 µM | kon ([1]; Fig. 2D, read-out: ka, association rate constant): 1.67e+06 M⁻¹ s⁻¹ | koff ([1]; Fig. 2D, read-out: kd, dissociation rate constant): 0.87 s⁻¹

CC(C)C[C@H](NC(=O)[C@H](CCC(=O)O)NC(=O)CNC(=O)[C@@H](N)CCCNC(=N)N)C(=O)N[C@@H](Cc1ccccc1)C(=O)N[C@@H](COP(=O)(O)O)C(=O)N[C@@H](C)C(=O)N1CCC[C@H]1C(=O)O [pBKI1^265-272] (H-RGELF[pS]AP-OH)
Kd [2]: 15.9 ± 0.4 µM

Source: article PMC11558545, “Mechanistic Insights into the Function of 14-3-3 Proteins as Negative Regulators of Brassinosteroid Signaling in Arabidopsis” (Plant and Cell Physiology, 2024)
